How the values were obtained:
Format in all cases: in vivo
Setaria faberi [1] = experiment: greenhouse post-emergence treatment, SETFA; settings: scale from 0 to 100
Description: (§1) The culture containers used were plastic flowerpots containing loamy sand with approximately 3.0% of humus as the substrate. The seeds of the test plants were sown separately for each species.
(§2) For the post-emergence treatment, the test plants were first grown to a height of 3 to 15 cm, depending on the plant habit, and only then treated with the active ingredients which had been suspended or emulsified in water. For this purpose, the test plants were either sown directly and grown in the same containers, or they were first grown separately as seedlings and transplanted into the test containers a few days prior to treatment.
(§3) Depending on the species, the plants were kept at 10-25° C. or 20-35° C., respectively.
(§4) The test period extended over 2 to 4 weeks. During this time, the plants were tended, and their response to the individual treatments was evaluated.
(§5) Evaluation was carried out using a scale from 0 to 100. 100 means no emergence of the plants, or complete destruction of at least the aerial moieties, and 0 means no damage, or normal course of growth.
(§6) The plants used in the greenhouse experiments were of the following species: […]

Abutilon theophrasti [2] = experiment: greenhouse post-emergence treatment, ABUTH; settings: scale from 0 to 100
Description: as §1, §2, §3, §4, §5, §6

Echinocloa crus-galli [3] = experiment: greenhouse post-emergence treatment, ECHCG; settings: scale from 0 to 100
Description: as §1, §2, §3, §4, §5, §6

Amaranthus retroflexus [4] = experiment: greenhouse post-emergence treatment, AMARE; settings: scale from 0 to 100
Description: as §1, §2, §3, §4, §5, §6

Viola arvensis = experiment: greenhouse post-emergence treatment, VIOAR; settings: 1000 g/ha, scale from 0 to 100
Description: as §1, §2, §3, §4, §5, §6

Alopecurus agrestis = experiment: greenhouse post-emergence treatment, ALOMY; settings: 500 g/ha, scale from 0 to 100
Description: as §1, §2, §3, §4, §5, §6

Amaranthus retroflexus [5] = experiment: greenhouse pre-emergence treatment, AMARE; settings: scale from 0 to 100
Description: as §1
(§7) For the pre-emergence treatment, the active ingredients, which had been suspended or emulsified in water, were applied directly after sowing by means of finely distributing nozzles. The containers were irrigated gently to promote germination and growth and subsequently covered with transparent plastic hoods until the plants had rooted. This cover caused uniform germination of the test plants, unless this had been impaired by the active ingredients.
as §3, §4, §5, §6

Echinocloa crus-galli [6] = experiment: greenhouse pre-emergence treatment, ECHCG; settings: scale from 0 to 100
Description: as §1, §7, §3, §4, §5, §6

Setaria faberi [7] = experiment: greenhouse pre-emergence treatment, SETFA; settings: scale from 0 to 100
Description: as §1, §7, §3, §4, §5, §6

Abutilon theophrasti [8] = experiment: greenhouse pre-emergence treatment, ABUTH; settings: 1000 g/ha, scale from 0 to 100
Description: as §1, §7, §3, §4, §5, §6

Polygonum convolvulus = experiment: greenhouse post-emergence treatment, POLCO; settings: 125 g/ha, scale from 0 to 100
Description: as §1, §2, §3, §4, §5, §6

With `CC(F)c1nc(N)nc(Oc2c(F)c(F)cc(F)c2F)n1` (stereo not drawn) [Example 1, 4-(1-fluoroethyl)-6-(2,3,5,6-tetrafluorophenoxy)-1,3,5-triazin-2-amine] the “herbicidal activity against SETFA” value (Setaria faberi [1]; 3000 g/ha) was “very good (a very good herbicidal activity is given at values of at least 85)”, the “herbicidal activity against ABUTH” value (Abutilon theophrasti [2]; 3000 g/ha) was “good (a good herbicidal activity is given at values of at least 70)” and the “herbicidal activity against ECHCG” value (Echinocloa crus-galli [3]; 3000 g/ha) was “very good (a very good herbicidal activity is given at values of at least 85)”.
In the case of `CC(C)(F)c1nc(N)nc(Oc2c(F)c(F)c(F)c(F)c2F)n1` [Example 2], the “herbicidal activity against SETFA” value (Setaria faberi [1]; 3000 g/ha) is reported as “very good (a very good herbicidal activity is given at values of at least 85)” and the “herbicidal activity against ECHCG” value (Echinocloa crus-galli [3]; 3000 g/ha) is reported as “very good (a very good herbicidal activity is given at values of at least 85)”.
In the case of `CC(C)(F)c1nc(N)nc(Oc2c(F)ccc(F)c2F)n1` [Example 5], the “herbicidal activity against AMARE” value (Amaranthus retroflexus [4]; 1000 g/ha) is reported as “very good (a very good herbicidal activity is given at values of at least 85)”.
In the case of `CC(F)c1nc(N)nc(Oc2cccc(F)c2F)n1` (stereo not drawn) [Example 7], the “herbicidal activity against SETFA” value (Setaria faberi [1]; 1000 g/ha) is reported as “very good (a very good herbicidal activity is given at values of at least 85)” and the “herbicidal activity against ECHCG” value (Echinocloa crus-galli [3]; 1000 g/ha) is reported as “very good (a very good herbicidal activity is given at values of at least 85)”.
`CC(F)c1nc(N)nc(Oc2c(F)ccc(F)c2F)n1` (stereo not drawn) [Example 8] was tested, and the “herbicidal activity against SETFA” value (Setaria faberi [1]; 1000 g/ha) was “very good (a very good herbicidal activity is given at values of at least 85)”, the “herbicidal activity against VIOR” value (Viola arvensis) was “very good (a very good herbicidal activity is given at values of at least 85)” and the “herbicidal activity against AMARE” value (Amaranthus retroflexus [4]; 1000 g/ha) was “very good (a very good herbicidal activity is given at values of at least 85)”.
In the case of `CC(F)c1nc(N)nc(Oc2c(F)cc(F)c(F)c2F)n1` (stereo not drawn) [Example 9], the “herbicidal activity against SETFA” value (Setaria faberi [1]; 1000 g/ha) is reported as “very good (a very good herbicidal activity is given at values of at least 85)”, the “herbicidal activity against VIOR” value (Viola arvensis) is reported as “very good (a very good herbicidal activity is given at values of at least 85)” and the “herbicidal activity against AMARE” value (Amaranthus retroflexus [4]; 1000 g/ha) is reported as “very good (a very good herbicidal activity is given at values of at least 85)”.
For `Nc1nc(Oc2c(F)cc(F)c(F)c2F)nc(C(F)(F)F)n1` [Example 11], the “herbicidal activity against SETFA” value (Setaria faberi [1]; 1000 g/ha) was “very good (a very good herbicidal activity is given at values of at least 85)”.
With `CCC(C)(F)c1nc(N)nc(Oc2c(F)cc(F)c(F)c2F)n1` (stereo not drawn) [Example 19] the “herbicidal activity against AMARE” value (Amaranthus retroflexus [4]; 500 g/ha) was “very good (a very good herbicidal activity is given at values of at least 85)”.
With `CC(C)(C#N)c1nc(N)nc(Oc2c(F)c(F)c(F)c(F)c2F)n1` [Example 22] the “herbicidal activity against ALOMY” value (Alopecurus agrestis) was “good (a good herbicidal activity is given at values of at least 70)”.
With `CCC(F)c1nc(N)nc(Oc2c(F)cc(F)c(F)c2F)n1` (stereo not drawn) [Example 23] the “herbicidal activity against AMARE” value (Amaranthus retroflexus [5]; 1000 g/ha) was “very good (a very good herbicidal activity is given at values of at least 85)”, the “herbicidal activity against ECHCG” value (Echinocloa crus-galli [6]; 1000 g/ha) was “very good (a very good herbicidal activity is given at values of at least 85)” and the “herbicidal activity against SETFA” value (Setaria faberi [7]; 1000 g/ha) was “very good (a very good herbicidal activity is given at values of at least 85)”.
For `CCC(F)c1nc(N)nc(Oc2c(F)c(F)c(F)c(F)c2F)n1` (stereo not drawn) [Example 24], the “herbicidal activity against ABUTH” value (Abutilon theophrasti [8]) was “very good (a very good herbicidal activity is given at values of at least 85)”, the “herbicidal activity against ECHCG” value (Echinocloa crus-galli [6]; 1000 g/ha) was “very good (a very good herbicidal activity is given at values of at least 85)” and the “herbicidal activity against SETFA” value (Setaria faberi [7]; 1000 g/ha) was “very good (a very good herbicidal activity is given at values of at least 85)”.
With `Nc1nc(Oc2c(F)cc(F)c(F)c2F)nc(-c2cccs2)n1` [Example 25] the “herbicidal activity against ECHCG” value (Echinocloa crus-galli [3]; 500 g/ha) was “good (a good herbicidal activity is given at values of at least 70)”.
In the case of `Nc1nc(Oc2c(F)cc(F)c(F)c2F)nc(-c2ccc(Cl)s2)n1` [Example 27], the “herbicidal activity against AMARE” value (Amaranthus retroflexus [4]; 500 g/ha) is reported as “herbicidal activity”.
For `Cc1ccc(-c2nc(N)nc(Oc3c(F)cc(F)c(F)c3F)n2)o1` [Example 32], the “herbicidal activity against ABUTH” value (Abutilon theophrasti [2]; 1000 g/ha) was “very herbicidal activity”.
In the case of `Nc1nc(Oc2c(F)cc(F)c(F)c2F)nc(C2CCCO2)n1` (stereo not drawn) [Example 33], the “herbicidal activity against POLCO” value (Polygonum convolvulus) is reported as “very good (a very good herbicidal activity is given at values of at least 85)”.
For `Nc1nc(Oc2c(F)cc(F)c(F)c2F)nc([C@H]2CCCO2)n1` [Example 34], the “herbicidal activity against AMARE” value (Amaranthus retroflexus [5]; 500 g/ha) was “good (a good herbicidal activity is given at values of at least 70)” and the “herbicidal activity against SETFA” value (Setaria faberi [7]; 500 g/ha) was “good (a good herbicidal activity is given at values of at least 70)”.
With `Nc1nc(Oc2c(F)cc(F)c(F)c2F)nc([C@@H]2CCCO2)n1` [Example 35] the “herbicidal activity against AMARE” value (Amaranthus retroflexus [4]; 500 g/ha) was “good (a good herbicidal activity is given at values of at least 70)”.
`Cc1ncoc1-c1nc(N)nc(Oc2c(F)cc(F)c(F)c2F)n1` [Example 38] was tested, and the “herbicidal activity against ECHCG” value (Echinocloa crus-galli [3]; 1000 g/ha) was “good (a good herbicidal activity is given at values of at least 70)”.
With `CC(F)c1nc(N)nc(Oc2c(F)c(F)c(F)c(I)c2F)n1` (stereo not drawn) [Example 39] the “herbicidal activity against SETFA” value (Setaria faberi [1]; 500 g/ha) was “very good (a very good herbicidal activity is given at values of at least 85)” and the “herbicidal activity against ECHCG” value (Echinocloa crus-galli [3]; 500 g/ha) was “good (a good herbicidal activity is given at values of at least 70)”.
In the case of `CC(C)C(F)c1nc(N)nc(Oc2c(F)cc(F)c(F)c2F)n1` (stereo not drawn) [Example 42], the “herbicidal activity against AMARE” value (Amaranthus retroflexus [5]; 500 g/ha) is reported as “good (a good herbicidal activity is given at values of at least 70)”, the “herbicidal activity against ECHCG” value (Echinocloa crus-galli [6]; 500 g/ha) is reported as “good (a good herbicidal activity is given at values of at least 70)” and the “herbicidal activity against SETFA” value (Setaria faberi [7]; 500 g/ha) is reported as “very good (a very good herbicidal activity is given at values of at least 85)”.

From US20180110223A1, “PHENOXY- OR PYRIDIN-2-YLOXY-AMINOTRIAZINE COMPOUNDS AND THEIR USE AS HERBICIDES” (BASF SE, priority 2015, published 2018)
